Experimental data from patent US9149038B2, “4-amino-6-(heterocyclic)picolinates and 6-amino-2-(heterocyclic)pyrimidine-4-carboxylates and their use as herbicides” (Dow AgroSciences LLC, priority 2013, dated 2015).
Where two headings read alike, the source gives them in different places.

Columns and labels:
[1] = test system: Key Grass and Sedge Weeds as well as Grass Crops; experiment: Post-Emergent Test II: postemergent herbicidal activity, visual rating after 14 d (Table 8); assay type: in vivo; details: post-emergence, 336 h; for pest or weed control at 35 g/ha: 35 g ai/ha; for pest or weed control at 70 g/ha: 70 g ai/ha; for pest or weed control at 140 g/ha: 140 g ai/ha
Summary of the method: (§1)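 Track-sprayed young seedlings (first/second true leaf) at 187 L/ha across a 2-fold rate series from the high rate down to 1/16×. Kept in greenhouse at 23-29° C day, subirrigated. Injury rated by eye after 14 d, 0 = no injury, 100 = complete kill.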

[2] = test system: Key Broadleaf Weed and Crop Species; experiment: Post-Emergent Test II: postemergent herbicidal activity, visual rating after 14 d (Table 7); assay type: in vivo; details: post-emergence, 336 h; for pest or weed control at 35 g/ha: 35 g ai/ha; for pest or weed control at 70 g/ha: 70 g ai/ha; for pest or weed control at 140 g/ha: 140 g ai/ha
Summary of the method: as §1

[3] = barnyardgrass (Echinochloa crus-galli), read-out: Visual Growth Reduction (%) 14 Days After Application, ECHCG
[4] = maize, corn (Zea mays), read-out: Visual Growth Reduction (%) 14 Days After Application, ZEAMX
[5] = rice (Oryza sativa), read-out: Visual Growth Reduction (%) 14 Days After Application, ORYSA
[6] = wheat, spring (Triticum aestivum), read-out: Visual Growth Reduction (%) 14 Days After Application, TRZAS
[7] = yellow nutsedge (Cyperus esculentus), read-out: Visual Growth Reduction (%) 14 Days After Application, CYPES
[8] = ABUTH: velvetleaf (Abutilon theophrasti), read-out: Visual Growth Reduction (%) 14 Days After Application ABUTH
[9] = AMARE: redroot pigweed (Amaranthus retroflexus), read-out: Visual Growth Reduction (%) 14 Days After Application AMARE
[10] = BRSNN: oilseed rape, canola (Brassica napus), read-out: Visual Growth Reduction (%) 14 Days After Application BRSNN
[11] = CHEAL: lambsquarters (Chenopodium album), read-out: Visual Growth Reduction (%) 14 Days After Application CHEAL
[12] = EPHHL: wild poinsettia (Euphorbia heterophylla), read-out: Visual Growth Reduction (%) 14 Days After Application EPHHL
[13] = HELAN: sunflower (Helianthus annuus), read-out: Visual Growth Reduction (%) 14 Days After Application HELAN

Nc1c(F)c(-c2ccc3c(c2)OCC3)nc(C(=O)O)c1Cl [Compound 101]
85 to 94%: pest or weed control at 70 g/ha [2, 8] | pest or weed control at 70 g/ha [2, 10] | pest or weed control at 35 g/ha [2, 13] | pest or weed control at 70 g/ha [2, 13] | pest or weed control at 140 g/ha [2, 13]
75 to 84%: pest or weed control at 140 g/ha [1, 3] | pest or weed control at 35 g/ha [2, 8]
60 to 74%: pest or weed control at 35 g/ha [1, 3] | pest or weed control at 70 g/ha [1, 3]
95 to 100%: pest or weed control at 140 g/ha [2, 8] | pest or weed control at 35 g/ha [2, 9] | pest or weed control at 70 g/ha [2, 9] | pest or weed control at 140 g/ha [2, 9] | pest or weed control at 140 g/ha [2, 10] | pest or weed control at 35 g/ha [2, 11] | pest or weed control at 70 g/ha [2, 11] | pest or weed control at 140 g/ha [2, 11]
0 to 29%: pest or weed control at 35 g/ha [1, 4] | pest or weed control at 70 g/ha [1, 4] | pest or weed control at 140 g/ha [1, 4] | pest or weed control at 35 g/ha [1, 5] | pest or weed control at 70 g/ha [1, 5] | pest or weed control at 140 g/ha [1, 5] | pest or weed control at 35 g/ha [1, 6] | pest or weed control at 70 g/ha [1, 6] | pest or weed control at 140 g/ha [1, 6] | pest or weed control at 35 g/ha [1, 7] | pest or weed control at 70 g/ha [1, 7] | pest or weed control at 140 g/ha [1, 7] | pest or weed control at 35 g/ha [2, 10] | pest or weed control at 35 g/ha [2, 12] | pest or weed control at 70 g/ha [2, 12]
30 to 44%: pest or weed control at 140 g/ha [2, 12]
